The values that follow come from patent US11357813B2, “Composition comprising tannins” (ABOCA S.P.A SOCIETÀ AGRICOLA, priority 2015, dated 2022).

For series [1], the system named is white male mouse oropharynx sections (oral mucosa). In words: FeCl3 staining of oropharynx sections: interaction of tannin-containing extracts and compositions with the oral mucosa. In kind it is binding. The note with it: sections treated 1 hour with 10%, 5%, 1% and 0.1% in distilled water (w/v); 2% FeCl3 for 15 minutes; optical microscope 40x. The method, then: 1. Assessment of interaction among plant extracts containing tannins, plant extracts not containing tannins and oral mucosa.
2 μm-thick sections of untreated white male mouse oropharynx, fixed in formalin with 10% phosphate buffer, were used.
Separate deparaffinized and hydrated sections were treated for 1 hour, respectively with
1—10%, 5%, 1% and 0.1% tannic acid in distilled water (weight/volume)
2—10%, 5%, 1% and 0.1% Agrimonia eupatoria extract in distilled water (w/v), equal to, respectively, 100 mg/ml, 50 mg/ml, 10 mg/ml and 1 mg/ml of Agrimonia eupatoria
3—10%, 5%, 1% and 0.1% Hamamelis Virginiana extract in distilled water (w/v), equal to, respectively, 100 mg/ml, 50 mg/ml, 10 mg/ml and 1 mg/ml of Hamamelis Virginiana
4—10%, 5%, 1% and 0.1% Aloe vera extract in distilled water (w/v)
5—10%, 5%, 1% and 0.1% Commiphora myrrha in distilled water (w/v)
6—composition of the invention in the form of tablets (composition example B) in a 10%, 20% 30% and 50% solution, equal to, respectively, 6.67 mg/ml, 13.34 mg/ml, 20.01 mg/ml and 33.35 mg/ml of Agrimonia eupatoria
7—composition of the invention in the form of spray (composition example C) in a 10%, 20%, 50% and 100% solution, equal to, respectively, 3.3 mg/ml, 6.6 mg/ml, 16.5 mg/ml and 33 mg/ml of Agrimonia eupatoria, […]
The sections were analyzed at the optical microscope (40× magnification) and photographed with a digital camera.

For a further series, the system named is laboratory animals. Particulars: cited from earlier work.

The structures appear in SMILES notation.

Take `O=C(OC[C@H]1O[C@@H](OC(=O)c2cc(O)c(O)c(OC(=O)c3cc(O)c(O)c(O)c3)c2)[C@H](OC(=O)c2cc(O)c(O)c(OC(=O)c3cc(O)c(O)c(O)c3)c2)[C@@H](OC(=O)c2cc(O)c(O)c(OC(=O)c3cc(O)c(O)c(O)c3)c2)[C@@H]1OC(=O)c1cc(O)c(O)c(OC(=O)c2cc(O)c(O)c(O)c2)c1)c1cc(O)c(O)c(OC(=O)c2cc(O)c(O)c(O)c2)c1` [Sample 1, tannic acid]: the “FeCl3 staining of oropharynx sections” value in series [1] is “Staining intensity is dependent on concentration”. In addition, the “tumour finding after subcutaneous administration” value in the series with laboratory animals was “onset of hepatic tumours”.
